Data taken from US20260193264A1, “BENZOYPARAZINE PYRAZINES AND THEIR USES” (FOGHORN THERAPEUTICS INC., priority 2022, published 2026).

Assays:
[1] = target: T1, HiBiT-BRM fusion protein in stable HeLa cell line (Homo sapiens, UniProt P51531); assay: HiBiT-BRM cell-based degradation assay (Nano-Glo HiBiT Lytic Detection, 24 h); parameters: DC50: scale not given here; conditions: HeLa HiBiT-BRM cells; for DC50: read-out: BRM HiBit Degradation IC50; for BRM HiBit Degradation Maximum (%): top dose 30 μM
T1 construct: expressed in transfected cells
Experimental: (§1) Procedure: A stable HeLa cell line expressing HiBiT-BRM was generated. On day 0, 5000 cells were seeded in 40 μL of media into each well of 384-well cell culture plates. On day 1, cells were treated with 120 nL DMSO or 120 nL of 3-fold serially DMSO-diluted compounds (10 points in duplicate with 30 μM as final top dose). Subsequently plates were incubated for 24 h in a standard tissue culture incubator and equilibrated at room temperature for 15 minutes. Nano-Glo HiBiT Lytic Detection System (Promega N3050) reagent was freshly prepared and 20 ul was added to each well. Upon addition of this LgBit-containing reagent, the HiBiT and LgBiT proteins associate to form the luminescent NanoBiT luciferase. The plates were shaken for 10 minutes at room temperature and the bioluminescence read using an EnVision plate reader (PerkinElmer).
The degradation % was calculated using the following formula: % degradation=100%−100%×(Lumsample−LumLC)/(LumHC−LumLC). DMSO treated cells are employed as High Control (HC) and 2 μM of a known BRM/BRG1 degrader standard treated cells are employed as Low Control (LC).

[2] = target: T2, HiBit-BRG1 fusion protein in stable HeLa cell line expressing HiBit-BRG1 and LgBit (Homo sapiens, UniProt P51532); assay: HiBiT-BRG1 cell-based degradation assay (Nano-Glo HiBiT, 24 h); conditions: HeLa HiBit-BRG1/LgBit cells; for DC50: read-out: BRMG1 HiBit Degradation IC50; for Dmax: top dose 30 μM, read-out: BRG1 HiBit Degradation Maximum (%)
T2 construct: expressed in transfected cells
Experimental: as §1, with “On day 1, cells were treated with 120 nL DMSO or 120 nL of 3-fold serially DMSO-diluted compounds (10 points in duplicate with 30 μM as final top dose).” left out, “(PerkinElmer). For measurement of BRG1 degradation, a stable HeLa cell line expressing HiBit-BRG1 and LgBit was generated. The same protocol as above was then followed. The degradation % was calculated using the following formula: % degradation=100%−100%×(Lumsample−LumLC)/(LumHC−LumLC). DMSO treated cells are employed as High Control (HC) and 2 μM of a known BRM/BRG1 degrader standard treated cells are employed as Low Control (LC).” for “(PerkinElmer).”

T1 sequence (P51531 whole entry, the tested form may be a part): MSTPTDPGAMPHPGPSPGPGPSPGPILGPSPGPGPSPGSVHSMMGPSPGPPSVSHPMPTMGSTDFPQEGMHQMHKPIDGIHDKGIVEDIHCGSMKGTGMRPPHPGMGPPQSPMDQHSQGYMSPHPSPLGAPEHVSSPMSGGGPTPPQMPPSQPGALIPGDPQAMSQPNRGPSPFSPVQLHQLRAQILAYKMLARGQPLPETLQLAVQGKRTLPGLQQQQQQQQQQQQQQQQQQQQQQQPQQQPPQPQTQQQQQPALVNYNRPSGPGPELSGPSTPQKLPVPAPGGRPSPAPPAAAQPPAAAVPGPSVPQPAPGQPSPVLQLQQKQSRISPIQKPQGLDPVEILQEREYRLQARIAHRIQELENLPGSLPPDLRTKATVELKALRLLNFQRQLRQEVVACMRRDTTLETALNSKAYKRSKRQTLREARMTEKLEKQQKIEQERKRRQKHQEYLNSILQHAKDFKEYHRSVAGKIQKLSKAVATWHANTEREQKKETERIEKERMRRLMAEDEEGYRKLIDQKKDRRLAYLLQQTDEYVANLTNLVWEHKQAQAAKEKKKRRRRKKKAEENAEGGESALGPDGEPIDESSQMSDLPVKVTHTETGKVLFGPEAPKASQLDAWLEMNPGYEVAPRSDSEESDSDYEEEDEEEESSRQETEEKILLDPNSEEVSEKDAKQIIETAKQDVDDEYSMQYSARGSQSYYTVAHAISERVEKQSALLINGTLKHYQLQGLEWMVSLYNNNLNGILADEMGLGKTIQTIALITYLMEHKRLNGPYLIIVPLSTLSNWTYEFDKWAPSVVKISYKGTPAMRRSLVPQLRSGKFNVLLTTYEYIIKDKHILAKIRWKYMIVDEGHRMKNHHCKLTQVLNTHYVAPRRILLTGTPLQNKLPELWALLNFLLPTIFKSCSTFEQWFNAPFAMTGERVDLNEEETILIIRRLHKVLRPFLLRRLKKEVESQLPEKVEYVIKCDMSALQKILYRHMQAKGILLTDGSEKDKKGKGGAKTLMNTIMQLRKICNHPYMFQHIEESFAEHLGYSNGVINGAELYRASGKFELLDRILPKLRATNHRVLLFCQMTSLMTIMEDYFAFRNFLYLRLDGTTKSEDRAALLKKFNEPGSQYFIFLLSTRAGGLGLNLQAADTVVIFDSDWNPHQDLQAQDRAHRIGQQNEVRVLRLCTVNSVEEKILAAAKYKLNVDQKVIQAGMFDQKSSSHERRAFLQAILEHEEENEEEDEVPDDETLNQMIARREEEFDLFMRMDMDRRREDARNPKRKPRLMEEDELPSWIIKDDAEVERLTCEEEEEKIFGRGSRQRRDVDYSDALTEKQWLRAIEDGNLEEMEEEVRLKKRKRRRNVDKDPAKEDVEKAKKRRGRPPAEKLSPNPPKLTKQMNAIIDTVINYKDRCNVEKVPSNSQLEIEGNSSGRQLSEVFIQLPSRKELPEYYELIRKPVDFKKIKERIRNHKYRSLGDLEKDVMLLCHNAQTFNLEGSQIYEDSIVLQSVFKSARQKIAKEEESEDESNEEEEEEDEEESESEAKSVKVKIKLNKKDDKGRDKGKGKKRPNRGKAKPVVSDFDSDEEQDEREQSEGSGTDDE
T2 sequence (P51532 whole entry, the tested form may be a part): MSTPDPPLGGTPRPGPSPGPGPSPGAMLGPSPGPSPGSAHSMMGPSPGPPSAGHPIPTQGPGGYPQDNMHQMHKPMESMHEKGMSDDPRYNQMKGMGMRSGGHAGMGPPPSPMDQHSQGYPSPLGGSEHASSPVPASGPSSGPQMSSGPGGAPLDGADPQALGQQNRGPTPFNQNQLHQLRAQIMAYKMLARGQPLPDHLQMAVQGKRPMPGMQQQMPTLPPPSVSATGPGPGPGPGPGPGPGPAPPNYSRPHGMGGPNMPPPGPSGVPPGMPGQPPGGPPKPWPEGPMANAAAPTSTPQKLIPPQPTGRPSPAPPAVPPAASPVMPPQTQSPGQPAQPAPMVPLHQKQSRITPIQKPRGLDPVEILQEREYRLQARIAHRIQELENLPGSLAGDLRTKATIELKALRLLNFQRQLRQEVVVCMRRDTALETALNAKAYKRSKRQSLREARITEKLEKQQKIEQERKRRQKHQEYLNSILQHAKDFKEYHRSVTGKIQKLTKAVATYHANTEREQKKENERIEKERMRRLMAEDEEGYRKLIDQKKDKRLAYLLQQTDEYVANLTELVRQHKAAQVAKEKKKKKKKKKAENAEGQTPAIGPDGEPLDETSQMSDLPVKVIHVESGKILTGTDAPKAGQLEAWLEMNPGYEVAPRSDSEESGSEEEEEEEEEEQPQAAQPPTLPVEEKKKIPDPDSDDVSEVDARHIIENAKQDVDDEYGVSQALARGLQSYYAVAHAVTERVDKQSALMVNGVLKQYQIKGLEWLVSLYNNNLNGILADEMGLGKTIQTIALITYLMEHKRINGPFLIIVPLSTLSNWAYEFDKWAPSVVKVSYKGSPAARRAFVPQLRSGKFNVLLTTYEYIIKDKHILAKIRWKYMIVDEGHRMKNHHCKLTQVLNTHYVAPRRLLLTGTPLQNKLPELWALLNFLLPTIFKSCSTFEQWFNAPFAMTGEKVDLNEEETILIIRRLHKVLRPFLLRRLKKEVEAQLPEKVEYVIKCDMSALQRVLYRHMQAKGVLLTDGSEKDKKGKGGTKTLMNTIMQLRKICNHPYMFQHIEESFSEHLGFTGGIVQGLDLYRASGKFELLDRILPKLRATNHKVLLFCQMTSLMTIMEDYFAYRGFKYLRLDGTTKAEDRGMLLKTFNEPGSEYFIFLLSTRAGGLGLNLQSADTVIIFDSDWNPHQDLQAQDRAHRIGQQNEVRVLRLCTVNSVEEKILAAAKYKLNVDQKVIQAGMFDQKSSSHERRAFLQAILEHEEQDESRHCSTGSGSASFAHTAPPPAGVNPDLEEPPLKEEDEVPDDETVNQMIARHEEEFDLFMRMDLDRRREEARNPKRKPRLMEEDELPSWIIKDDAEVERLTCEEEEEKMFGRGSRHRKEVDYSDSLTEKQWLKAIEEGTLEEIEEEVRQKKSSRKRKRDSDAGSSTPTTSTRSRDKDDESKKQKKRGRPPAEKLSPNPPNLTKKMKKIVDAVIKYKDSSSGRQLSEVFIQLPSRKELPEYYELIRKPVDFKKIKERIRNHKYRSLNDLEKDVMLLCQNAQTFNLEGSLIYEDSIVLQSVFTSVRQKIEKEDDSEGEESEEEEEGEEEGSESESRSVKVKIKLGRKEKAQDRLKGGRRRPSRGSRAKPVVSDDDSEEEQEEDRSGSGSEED

| DC50 [1] [nM] | DC50 [2] [nM] | Dmax [2] [%] | Compound | BRM HiBit Degradation Maximum (%) [1] |
| --- | --- | --- | --- | --- |
| < 10 | – | < 50 | Cc1ncsc1-c1ccc(C(C)NC(=O)C2CC(O)CN2C(=O)[C@@H](c2cc(N3CCN([C@@H]4CCN(Cc5cc6nnc(-c7ccccc7O)cc6cc5Cl)CC4(F)F)CC3)no2)C(C)C)cc1 (stereo in doubt) [Compound 215, (2R,4S)-1-((R)-2-(3-(4-((R)-1-((6-chloro-3-(2-hydroxyphenyl)cinnolin-7-yl)methyl)-3,3-difluoropiperidin-4-yl)piperazin-1-yl)isoxazol-5-yl)-3-methylbutanoyl)-4-hydroxy-N-((R)-1-(4-(4-methylthiazol-5-yl)phenyl)ethyl)pyrrolidine-2-carboxamide] | A (“A” indicates maximum degradation ≥75%) |
| > 10 | – | < 50 | Cc1ncsc1-c1ccc(C(C)NC(=O)C2CC(O)CN2C(=O)[C@@H](c2cc(N3CCN([C@H]4CCN(Cc5cc6nnc(-c7ccccc7O)cc6cc5Cl)CC4(F)F)CC3)no2)C(C)C)cc1 (stereo in doubt) [Compound 216, (2R,4S)-1-((R)-2-(3-(4-((S)-1-((6-chloro-3-(2-hydroxyphenyl)cinnolin-7-yl)methyl)-3,3-difluoropiperidin-4-yl)piperazin-1-yl)isoxazol-5-yl)-3-methylbutanoyl)-4-hydroxy-N-((R)-1-(4-(4-methylthiazol-5-yl)phenyl)ethyl)pyrrolidine-2-carboxamide] | A (“A” indicates maximum degradation ≥75%) |
| < 10 | > 10 | > 50 | Cc1ncsc1-c1ccc([C@H](C)NC(=O)[C@@H]2C[C@@H](O)CN2C(=O)C(F)(c2cc(N3CC4(CN(c5ccc6cc(-c7ccccc7O)nnc6c5)C4)C3)no2)C(C)C)cc1 (stereo in doubt) [Compound 221, (2S,4R)-1-((R)-2-fluoro-2-(3-(6-(3-(2-hydroxyphenyl)cinnolin-7-yl)-2,6-diazaspiro[3.3]heptan-2-yl)isoxazol-5-yl)-3-methylbutanoyl)-4-hydroxy-N-((S)-1-(4-(4-methylthiazol-5-yl)phenyl)ethyl)pyrrolidine-2-carboxamide] | A (“A” indicates maximum degradation ≥75%) |
| < 10 | – | < 50 | Cc1ncsc1-c1ccc([C@H](C)NC(=O)[C@@H]2C[C@@H](O)CN2C(=O)C(C(C)C)n2cc(N3CC4(CN(c5ccc6cc(-c7ccccc7O)nnc6c5)C4)C3)cn2)cc1 (stereo in doubt) [Compound 257, (2S,4R)-4-hydroxy-1-((R)-2-(4-(6-(3-(2-hydroxyphenyl)cinnolin-7-yl)-2,6-diazaspiro[3.3]heptan-2-yl)-1H-pyrazol-1-yl)-3-methylbutanoyl)-N-((S)-1-(4-(4-methylthiazol-5-yl)phenyl)ethyl)pyrrolidine-2-carboxamide] | A (“A” indicates maximum degradation ≥75%) |

The next lines start with the molecule.

| Compound | DC50 [1] [nM] | DC50 [2] [nM] | Dmax [2] [%] | BRM HiBit Degradation Maximum (%) [1] |
| --- | --- | --- | --- | --- |
| Cc1ncsc1-c1ccc([C@H](C)NC(=O)[C@@H]2C[C@@H](O)CN2C(=O)C(c2cc(-c3cnc(N4CCC5(CC4)CC(c4ccc6cc(-c7ccccc7O)nnc6c4)C5)nc3)no2)C(C)C)cc1 (mixture of isomers) [Compound 65, (2S,4R)-4-hydroxy-1-(2-(3-(2-(2-(3-(2-hydroxyphenyl)cinnolin-7-yl)-7-azaspiro[3.5]nonan-7-yl)pyrimidin-5-yl)isoxazol-5-yl)-3-methylbutanoyl)-N-((S)-1-(4-(4-methylthiazol-5-yl)phenyl)ethyl)pyrrolidine-2-carboxamide] | < 10 | > 10 | > 75 | A (“A” indicates maximum degradation ≥75%) |
| Cc1ncsc1-c1ccc([C@H](C)NC(=O)[C@@H]2C[C@@H](O)CN2C(=O)[C@@H](c2cc(N3CC4(CN(c5ccc6cc(-c7ccccc7O)nnc6c5)C4)C3)no2)C(C)C)cc1 (single isomer, unassigned) [Compound 51] | < 10 | – | – | A (“A” indicates maximum degradation ≥75%) |
| Cc1ncsc1-c1ccc([C@H](C)NC(=O)[C@@H]2C[C@@H](O)CN2C(=O)[C@@H](c2cn(-c3ccc4nnc(-c5ccccc5O)cc4c3)nn2)C(C)C)cc1 (single isomer, unassigned) [Compound 161] | < 10 | < 10 | > 75 | A (“A” indicates maximum degradation ≥75%) |
| Cc1ncsc1-c1ccc([C@H](C)NC(=O)[C@@H]2C[C@@H](O)CN2C(=O)[C@@H](c2cc(N3CCC4(CC3)CC(Oc3ccc5nnc(-c6ccccc6O)cc5c3)C4)no2)C(C)C)cc1 (single isomer, unassigned) [Compound 185] | < 10 | < 10 | > 75 | A (“A” indicates maximum degradation ≥75%) |
| Cc1ncsc1-c1ccc([C@H](C)NC(=O)[C@@H]2C[C@@H](O)CN2C(=O)[C@@H](c2cc(N3CC4(CN(c5ccc6cc(-c7ccccc7O)nnc6c5)C4)C3)n(C)n2)C(C)C)cc1 (single isomer, unassigned) [Compound 194] | > 100 | – | < 50 | A (“A” indicates maximum degradation ≥75%) |
| Cc1ncsc1-c1ccc([C@H](C)NC(=O)[C@@H]2C[C@@H](O)CN2C(=O)[C@@H](c2cc(C3CC4(C3)CN(c3ccc5nnc(-c6ccccc6O)cc5c3)C4)no2)C(C)C)cc1 (single isomer, unassigned) [Compound 200] | < 10 | < 10 | > 75 | A (“A” indicates maximum degradation ≥75%) |
| Cc1ncsc1-c1ccc([C@H](C)NC(=O)[C@@H]2C[C@@H](O)CN2C(=O)[C@H](C2CC2)n2cc(N3CC4(CN(c5ccc6cc(-c7ccccc7O)nnc6c5)C4)C3)nn2)cc1 (single isomer, unassigned) [Compound 210] | < 10 | – | – | A (“A” indicates maximum degradation ≥75%) |
| Cc1ncsc1-c1ccc([C@H](C)NC(=O)[C@@H]2C[C@@H](O)CN2C(=O)C(c2cc(N3CCC4(CCC(c5ccc6nnc(-c7ccccc7O)cc6c5)CC4)CC3)no2)C(C)C)cc1 (stereo in doubt) [Compound 63, (2S,4R)-4-hydroxy-1-((S)-2-(3-(9-(3-(2-hydroxyphenyl)cinnolin-6-yl)-3-azaspiro[5.5]undecan-3-yl)isoxazol-5-yl)-3-methylbutanoyl)-N-((S)-1-(4-(4-methylthiazol-5-yl)phenyl)ethyl)pyrrolidine-2-carboxamide] | < 10 | < 10 | > 75 | A (“A” indicates maximum degradation ≥75%) |
| Cc1ncsc1-c1ccc([C@H](C)NC(=O)[C@@H]2C[C@@H](O)CN2C(=O)[C@@H](c2cc(OCCN3CC(c4ccc5nnc(-c6ccccc6O)cc5c4)C3)no2)C(C)C)cc1 [Compound 1, (2S,4R)-4-hydroxy-1-[(2R)-2-[3-(2-{3-[3-(2-hydroxyphenyl)cinnolin-6-yl]azetidin-1-yl}ethoxy)-1,2-oxazol-5-yl]-3-methylbutanoyl]-N-[(1S)-1-[4-(4-methyl-1,3-thiazol-5-yl)phenyl]ethyl]pyrrolidine-2-carboxamide] | > 10 | – | < 50 | B (“B” indicates maximum degradation ≥50%) |
| Cc1ncsc1-c1ccc([C@H](C)NC(=O)[C@@H]2C[C@@H](O)CN2C(=O)[C@@H](c2cc(N3CCC(CN4CC(c5ccc6nnc(-c7ccccc7O)cc6c5)C4)CC3)no2)C(C)C)cc1 [Compound 2, (2S,4R)-4-hydroxy-1-((R)-2-(3-(4-((3-(3-(2-hydroxyphenyl)cinnolin-6-yl)azetidin-1-yl)methyl)piperidin-1-yl)isoxazol-5-yl)-3-methylbutanoyl)-N-((S)-1-(4-(4-methylthiazol-5-yl)phenyl)ethyl)pyrrolidine-2-carboxamide] | > 10 | – | < 50 | A (“A” indicates maximum degradation ≥75%) |
